Results reported in patent US8329688B2, “Trans-4-[[(5S)-5-[[[3,5-bis(trifluoromethyl)phenyl]methyl](2-methyl-2H-tetrazol-5-yl)amino]-2,3,4,5-tetrahydro-7,9-dimethyl-1H-1-benzazepin-1-yl]methyl]-cyclohexanecarboxylic acid” (Eli Lilly and Company, priority 2009, dated 2012).

Assay: IV and PO pharmacokinetics of CETP inhibitor compounds in male Sprague Dawley rats
Format: in vivo
Details: rat, 3 mg/kg PO, 1 mg/kg IV
Procedure: This following is to determine the pharmacokinetic parameters, including oral bioavailability, following a single 1 mg/kg intravenous bolus or a 3 mg/kg oral dose administration of the compound to male Sprague Dawley rats (n=4) in a crossover study design. The intravenous vehicle is 20% solutol microemulsion/80% deionized water. The oral vehicle is povidone USP 10%/SLS 0.5%/QS deionized water. In the intravenous arm, blood samples are collected at 0.08, 0.25, 0.5, 1, 2, 5, 8, 12, and 24 hours post-dose. In the oral arm, blood samples are collected at 0, 0.25, 0.5, 1, 2, 5, 8, 12, and 24 hours post-dose. Plasma is obtained by centrifugation, placed on ice, and frozen until samples are shipped on dry ice to Bioanalytical Systems, Inc. (BASi; West Lafayette, Ind.) for bioanalytical analysis. Concentrations of BCCA are determined by LC/MS/MS and pharmacokinetic parameters are calculated using a validated software program (Watson, Version 7.1). […]

F % (AUC Extrap.) ± sd: 8 ± 3%
SMILES: Cc1cc2c(c(C)c1C(F)(F)F)N(CC1CCC(CC(=O)O)CC1)CCC[C@@H]2N(Cc1cc(C(F)(F)F)cc(C(F)(F)F)c1)c1nnn(C)n1 (stereo partly drawn) [compound 15, (S)-(4-{5-[(3,5-Bis-trifluoromethyl-benzyl)-(2-methyl-2H-tetrazol-5-yl)-amino]-7,9-dimethyl-8-trifluoromethyl-2,3,4,5-tetrahydro-benzo[b]azepin-1-ylmethyl}-cyclohexyl)-acetic acid]
